# Where two headings read alike, the source gives them in different places.
# What was measured:
# [1] = tested on: normal and reperfused infarcted myocardium; conditions: 90 minutes post injection
# Method: (§1) Sprague-Dawley rats (female, 270-320 g, n=24) were subjected to occlusion of the anterior branch of the left main coronary artery for 60 minutes, followed by reperfusion for 120 minutes before injecting the test agent. A catheter was placed in the tail vein for administration of contrast media. Animals were connected to an ECG patient monitor and placed in the magnet such that the heart of each rat was at or near ioscenter. Magnetic field was optimized for a central slab of 6 mm thickness, within which the 2 mm section to be imaged was located. Inversion and slice select pulses were calibrated. Inversion recovery echo planar imaging was then used to measure baseline T1 values for myocardium and left ventricle chamber blood.
# (§2) MnDPDP was then administered at doses of 25, 50 and 100 μmole/kg by intravenous injection of 2.5, 5 and 10 ml/kg, respectively, of the test solution which contained a 10 mM solution of MnDPDP. These injections were followed by a flush of physiologic saline solution (0.9%) such that the combined volumes of test agent and saline flush was 11 ml/kg. All injected solutions were warmed before being administered and were injected slowly over 1.5 mins. T1 values were remeasured at 5 minute intervals during the first 60 minutes after injection. Occasional animals were imaged at 90 minutes for T1 determination (EPI) and for visual inspection of contrast on STIR (short TI inversion recovery) prepared spin echo images.
# [2] = tested on: normal and reperfused infarcted myocardium; assay: inversion recovery echo planar imaging T1 measurement after coronary occlusion 60 min and reperfusion 120 min
# Method: as §1, §2
# After imaging was completed, animals were sacrificed by an overdose of pentobarbital and the heart was excised, sectioned and stained in triphenyltetrazolium chloride solution to define the infarcted region.
# [3] = 25 μmol/kg, 5 min after injection
# [4] = 25 μmol/kg, 10 min after injection
# [5] = 25 μmol/kg, 15 min after injection
# [6] = 25 μmol/kg, 20 min after injection
# [7] = 25 μmol/kg, 25 min after injection
# [8] = 25 μmol/kg, 30 min after injection
# [9] = 25 μmol/kg, 35 min after injection
# [10] = 25 μmol/kg, 40 min after injection
# [11] = 25 μmol/kg, 45 min after injection
# [12] = 25 μmol/kg, 50 min after injection
# [13] = 25 μmol/kg, 55 min after injection
# [14] = 25 μmol/kg, 60 min after injection
# [15] = 50 μmol/kg, 5 min after injection
# [16] = 50 μmol/kg, 10 min after injection
# [17] = 50 μmol/kg, 15 min after injection
# [18] = 50 μmol/kg, 20 min after injection
# [19] = 50 μmol/kg, 25 min after injection
# [20] = 50 μmol/kg, 30 min after injection
# [21] = 50 μmol/kg, 35 min after injection
# [22] = 50 μmol/kg, 40 min after injection
# [23] = 50 μmol/kg, 45 min after injection
# [24] = 50 μmol/kg, 50 min after injection
# [25] = 50 μmol/kg, 55 min after injection
# [26] = 50 μmol/kg, 60 min after injection
# [27] = 100 μmol/kg, 5 min after injection
# [28] = 100 μmol/kg, 10 min after injection
# [29] = 100 μmol/kg, 15 min after injection
# [30] = 100 μmol/kg, 20 min after injection
# [31] = 100 μmol/kg, 25 min after injection
# [32] = 100 μmol/kg, 30 min after injection
# [33] = 100 μmol/kg, 35 min after injection
# [34] = 100 μmol/kg, 40 min after injection
# [35] = 100 μmol/kg, 45 min after injection
# [36] = 100 μmol/kg, 50 min after injection
# [37] = 100 μmol/kg, 55 min after injection
# [38] = 100 μmol/kg, 60 min after injection
compound,measurement,setting,value
"Cc1ncc(COP(=O)(O)O)c(CN(CCN(CC(=O)[O-])Cc2c(COP(=O)(O)O)cnc(C)c2O)CC(=O)[O-])c1O.[Mn+2] [MnDPDP, manganese (II) chelate of N,N′-bis-(pyridoxal-5-phosphate)-ethylenediamine-N,N′-diacetic acid]","SI normal/SI infarct, conventional T1 weighted images",[1]; highest dose,1.15
same,"SI normal/SI infarct, STIR sequences",[1]; lowest dose,0.85-1.3
same,"SI normal/SI infarct, conventional T1 weighted images",[1]; lowest dose (n=1),about 1.25
same,T1 Blood,[2]; [3],1.04 ± 0.02 s
same,T1 Infarct,[2]; [3],0.76 ± 0.02 s
same,T1 normal,[2]; [3],0.77 ± 0.01 s
same,T1 Blood,[2]; [4],1.11 ± 0.02 s
same,T1 Infarct,[2]; [4],0.82 ± 0.02 s
same,T1 normal,[2]; [4],0.76 ± 0.01 s
same,T1 Blood,[2]; [5],1.14 ± 0.02 s
same,T1 Infarct,[2]; [5],0.86 ± 0.03 s
same,T1 normal,[2]; [5],0.75 ± 0.01 s
same,T1 Blood,[2]; [6],1.16 ± 0.02 s
same,T1 Infarct,[2]; [6],0.90 ± 0.03 s
same,T1 normal,[2]; [6],0.73 ± 0.01 s
same,T1 Blood,[2]; [7],1.18 ± 0.02 s
same,T1 Infarct,[2]; [7],0.92 ± 0.03 s
same,T1 normal,[2]; [7],0.72 ± 0.01 s
same,T1 Blood,[2]; [8],1.18 ± 0.02 s
same,T1 Infarct,[2]; [8],0.93 ± 0.03 s
same,T1 normal,[2]; [8],0.70 ± 0.01 s
same,T1 Blood,[2]; [9],1.19 ± 0.02 s
same,T1 Infarct,[2]; [9],0.95 ± 0.03 s
same,T1 normal,[2]; [9],0.70 ± 0.01 s
same,T1 Blood,[2]; [10],1.20 ± 0.02 s
same,T1 Infarct,[2]; [10],0.98 ± 0.03 s
same,T1 normal,[2]; [10],0.69 ± 0.01 s
same,T1 Blood,[2]; [11],1.21 ± 0.02 s
same,T1 Infarct,[2]; [11],0.99 ± 0.03 s
same,T1 normal,[2]; [11],0.68 ± 0.01 s
same,T1 Blood,[2]; [12],1.22 ± 0.02 s
same,T1 Infarct,[2]; [12],1.00 ± 0.03 s
same,T1 normal,[2]; [12],0.67 ± 0.01 s
same,T1 Blood,[2]; [13],1.22 ± 0.02 s
same,T1 Infarct,[2]; [13],1.01 ± 0.03 s
same,T1 normal,[2]; [13],0.67 ± 0.01 s
same,T1 Blood,[2]; [14],1.23 ± 0.02 s
same,T1 Infarct,[2]; [14],1.02 ± 0.03 s
same,T1 normal,[2]; [14],0.65 ± 0.01 s
same,T1 Blood,[2]; [15],0.84 ± 0.02 s
same,T1 Infarct,[2]; [15],0.59 ± 0.01 s
same,T1 normal,[2]; [15],0.69 ± 0.01 s
same,T1 Blood,[2]; [16],0.93 ± 0.03 s
same,T1 Infarct,[2]; [16],0.65 ± 0.01 s
same,T1 normal,[2]; [16],0.68 ± 0.01 s
same,T1 Blood,[2]; [17],0.97 ± 0.02 s
same,T1 Infarct,[2]; [17],0.69 ± 0.01 s
same,T1 normal,[2]; [17],0.67 ± 0.01 s
same,T1 Blood,[2]; [18],1.00 ± 0.02 s
same,T1 Infarct,[2]; [18],0.73 ± 0.01 s
same,T1 normal,[2]; [18],0.67 ± 0.01 s
same,T1 Blood,[2]; [19],1.02 ± 0.03 s
same,T1 Infarct,[2]; [19],0.76 ± 0.02 s
same,T1 normal,[2]; [19],0.64 ± 0.01 s
same,T1 Blood,[2]; [20],1.04 ± 0.03 s
same,T1 Infarct,[2]; [20],0.80 ± 0.01 s
same,T1 normal,[2]; [20],0.63 ± 0.01 s
same,T1 Blood,[2]; [21],1.05 ± 0.03 s
same,T1 Infarct,[2]; [21],0.82 ± 0.02 s
same,T1 normal,[2]; [21],0.62 ± 0.01 s
same,T1 Blood,[2]; [22],1.06 ± 0.03 s
same,T1 Infarct,[2]; [22],0.85 ± 0.03 s
same,T1 normal,[2]; [22],0.60 ± 0.01 s
same,T1 Blood,[2]; [23],1.08 ± 0.03 s
same,T1 Infarct,[2]; [23],0.87 ± 0.02 s
same,T1 normal,[2]; [23],0.60 ± 0.01 s
same,T1 Blood,[2]; [24],1.08 ± 0.03 s
same,T1 Infarct,[2]; [24],0.88 ± 0.02 s
same,T1 normal,[2]; [24],0.59 ± 0.01 s
same,T1 Blood,[2]; [25],1.08 ± 0.03 s
same,T1 Infarct,[2]; [25],0.89 ± 0.03 s
same,T1 normal,[2]; [25],0.58 ± 0.01 s
same,T1 Blood,[2]; [26],1.10 ± 0.03 s
same,T1 Infarct,[2]; [26],0.91 ± 0.03 s
same,T1 normal,[2]; [26],0.58 ± 0.01 s
same,T1 Blood,[2]; [27],0.63 ± 0.03 s
same,T1 Infarct,[2]; [27],0.46 ± 0.02 s
same,T1 normal,[2]; [27],0.59 ± 0.01 s
same,T1 Blood,[2]; [28],0.74 ± 0.03 s
same,T1 Infarct,[2]; [28],0.47 ± 0.02 s
same,T1 normal,[2]; [28],0.59 ± 0.01 s
same,T1 Blood,[2]; [29],0.80 ± 0.02 s
same,T1 Infarct,[2]; [29],0.51 ± 0.02 s
same,T1 normal,[2]; [29],0.58 ± 0.01 s
same,T1 Blood,[2]; [30],0.83 ± 0.02 s
same,T1 Infarct,[2]; [30],0.55 ± 0.03 s
same,T1 normal,[2]; [30],0.57 ± 0.01 s
same,T1 Blood,[2]; [31],0.87 ± 0.02 s
same,T1 Infarct,[2]; [31],0.58 ± 0.03 s
same,T1 normal,[2]; [31],0.57 ± 0.01 s
same,T1 Blood,[2]; [32],0.89 ± 0.02 s
same,T1 Infarct,[2]; [32],0.60 ± 0.03 s
same,T1 normal,[2]; [32],0.55 ± 0.01 s
same,T1 Blood,[2]; [33],0.91 ± 0.03 s
same,T1 Infarct,[2]; [33],0.61 ± 0.03 s
same,T1 normal,[2]; [33],0.54 ± 0.01 s
same,T1 Blood,[2]; [34],0.92 ± 0.03 s
same,T1 Infarct,[2]; [34],0.63 ± 0.03 s
same,T1 normal,[2]; [34],0.54 ± 0.01 s
same,T1 Blood,[2]; [35],0.93 ± 0.03 s
same,T1 Infarct,[2]; [35],0.65 ± 0.03 s
same,T1 normal,[2]; [35],0.53 ± 0.01 s
same,T1 Blood,[2]; [36],0.94 ± 0.03 s
same,T1 Infarct,[2]; [36],0.66 ± 0.03 s
same,T1 normal,[2]; [36],0.53 ± 0.01 s
same,T1 Blood,[2]; [37],0.97 ± 0.02 s
same,T1 Infarct,[2]; [37],0.69 ± 0.03 s
same,T1 normal,[2]; [37],0.52 ± 0.01 s
same,T1 Blood,[2]; [38],0.97 ± 0.03 s
same,T1 Infarct,[2]; [38],0.69 ± 0.03 s
same,T1 normal,[2]; [38],0.52 ± 0.01 s
same,slow E2 component,[2]; blood pool clearance,~0.01 per min
same,"E1, bi-exponential fit of ΔR1 clearance","[2]; dose 25, ROI blood",0.21 min⁻¹
same,"E2, bi-exponential fit of ΔR1 clearance","[2]; dose 25, ROI blood",0.011 ± 0.001 min⁻¹
same,"E1, bi-exponential fit of ΔR1 clearance","[2]; dose 25, ROI infarct",0.15 min⁻¹
same,"E2, bi-exponential fit of ΔR1 clearance","[2]; dose 25, ROI infarct",0.015 ± 0.001 min⁻¹
same,"intercept, linear fit - increase in normal myocardium","[2]; dose 25, ROI normal",0.187
same,"slope, linear fit - increase in normal myocardium","[2]; dose 25, ROI normal",0.0043 min⁻¹
same,"E1, bi-exponential fit of ΔR1 clearance","[2]; dose 50, ROI blood",0.15 min⁻¹
same,"E2, bi-exponential fit of ΔR1 clearance","[2]; dose 50, ROI blood",0.009 ± 0.001 min⁻¹
same,"E1, bi-exponential fit of ΔR1 clearance","[2]; dose 50, ROI infarct",0.058 min⁻¹
same,"E2, bi-exponential fit of ΔR1 clearance","[2]; dose 50, ROI infarct",0.005 ± 0.003 min⁻¹
same,"intercept, linear fit - increase in normal myocardium","[2]; dose 50, ROI normal",0.294
same,"slope, linear fit - increase in normal myocardium","[2]; dose 50, ROI normal",0.0056 min⁻¹
same,"E1, bi-exponential fit of ΔR1 clearance","[2]; dose 100, ROI blood",0.18 min⁻¹
same,"E2, bi-exponential fit of ΔR1 clearance","[2]; dose 100, ROI blood",0.011 ± 0.001 min⁻¹
same,"E1, bi-exponential fit of ΔR1 clearance","[2]; dose 100, ROI infarct",0.11 min⁻¹
same,"E2, bi-exponential fit of ΔR1 clearance","[2]; dose 100, ROI infarct",0.010 ± 0.003 min⁻¹
same,"intercept, linear fit - increase in normal myocardium","[2]; dose 100, ROI normal",0.523
same,"slope, linear fit - increase in normal myocardium","[2]; dose 100, ROI normal",0.0050 min⁻¹
same,plasma half life,[2]; equivalent to E2 component,~1.17 h
same,clearance or accumulation of test agent,"[2]; over 60 minutes after injection, 25, 50 and 100 μmole/kg",cleared from both blood and infarcted myocardium but accumulated in uninfarcted myocardium

# Source: patent publication US20020090341A1, “Method” (NYCOMED IMAGING AS, priority 1997, published 2002)
